{
  "source": "paper PMC4163472",
  "about": "“Crystal Structure of Deinococcus radiodurans RecQ Helicase Catalytic Core Domain: The Interdomain Flexibility” (BioMed Research International, 2014)",
  "molecular_target": "T1, DrRecQ helicase catalytic core (Deinococcus radiodurans, UniProt Q9RUU2)",
  "T1 construct": "gene DR_1289; residues 5-517 seen in the complex (296-300 not visible); monomer",
  "T1 sequence (Q9RUU2 1-517)": "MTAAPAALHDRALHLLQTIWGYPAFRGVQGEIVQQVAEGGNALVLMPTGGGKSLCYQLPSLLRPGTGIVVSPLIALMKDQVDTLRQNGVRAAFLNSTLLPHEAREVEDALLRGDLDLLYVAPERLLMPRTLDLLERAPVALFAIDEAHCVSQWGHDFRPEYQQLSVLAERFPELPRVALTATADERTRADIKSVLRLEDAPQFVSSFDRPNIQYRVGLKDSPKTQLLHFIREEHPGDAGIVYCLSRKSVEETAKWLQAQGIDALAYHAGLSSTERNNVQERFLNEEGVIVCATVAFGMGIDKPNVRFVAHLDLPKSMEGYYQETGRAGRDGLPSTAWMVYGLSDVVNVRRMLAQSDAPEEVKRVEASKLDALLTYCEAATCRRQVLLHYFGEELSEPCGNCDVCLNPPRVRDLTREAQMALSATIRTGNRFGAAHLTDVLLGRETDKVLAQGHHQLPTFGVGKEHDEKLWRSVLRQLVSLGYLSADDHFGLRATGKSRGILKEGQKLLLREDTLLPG",
  "assay": "X-ray crystallography, […] A",
  "format": "binding",
  "details": "crystallised in 0.1 M imidazole pH 7.2, 16% PEG 20K; nucleotide pocket of D1 domain (motifs 0 and I); no magnesium added; authors suggest ADP arose from ATP hydrolysed during crystallization",
  "data": [
    {"smiles": "Nc1ncnc2c1ncn2[C@@H]1O[C@H](COP(=O)(O)OP(=O)(O)O)[C@@H](O)[C@H]1O", "note": "[ADP]", "values": [
      {"measurement": "X-ray crystallography, 2.9 A", "result": "ADP is bound with extensive interactions with the protein"}
    ]}
  ]
}
